{"source": "patent US20230160909A1", "about": "“NOVEL ION CONDUCTING CHANNEL FUSION SUBUNITS AND METHODS OF USE THEREOF” (UNIVERSITE DE BORDEAUX, priority 2020, published 2023)", "type_in_all_cases": "cell-based", "key": {"[1]": {"molecular_target": "T1, TRPV1 channel (Homo sapiens, UniProt Q8NER1)", "T1 construct": "expressed in transfected cells; host or cells: HEK293T", "T1 sequence (Q8NER1 whole entry)": "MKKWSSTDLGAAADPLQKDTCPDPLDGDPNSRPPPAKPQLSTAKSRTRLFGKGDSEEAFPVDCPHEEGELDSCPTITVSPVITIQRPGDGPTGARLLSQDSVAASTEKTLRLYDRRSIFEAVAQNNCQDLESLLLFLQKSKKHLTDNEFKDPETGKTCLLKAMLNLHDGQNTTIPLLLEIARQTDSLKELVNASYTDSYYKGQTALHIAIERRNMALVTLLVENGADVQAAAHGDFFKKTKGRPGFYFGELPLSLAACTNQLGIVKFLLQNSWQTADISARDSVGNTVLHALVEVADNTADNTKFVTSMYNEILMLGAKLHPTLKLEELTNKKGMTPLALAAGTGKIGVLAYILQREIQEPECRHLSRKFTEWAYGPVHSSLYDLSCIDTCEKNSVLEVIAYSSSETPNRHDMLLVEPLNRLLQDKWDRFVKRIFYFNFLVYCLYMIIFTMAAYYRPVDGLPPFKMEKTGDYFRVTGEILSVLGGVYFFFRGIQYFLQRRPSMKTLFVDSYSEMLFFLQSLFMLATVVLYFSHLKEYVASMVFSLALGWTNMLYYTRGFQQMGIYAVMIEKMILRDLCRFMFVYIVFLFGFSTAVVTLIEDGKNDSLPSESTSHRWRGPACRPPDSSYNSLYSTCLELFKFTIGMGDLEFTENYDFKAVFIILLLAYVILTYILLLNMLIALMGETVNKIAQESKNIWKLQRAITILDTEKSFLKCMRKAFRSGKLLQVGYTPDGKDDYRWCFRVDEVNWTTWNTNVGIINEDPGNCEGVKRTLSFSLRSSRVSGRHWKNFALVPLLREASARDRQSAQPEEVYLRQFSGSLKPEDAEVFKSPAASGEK", "experiment": "hTRPV1-nLuc-Calflux-YFP (or mNeonGreen) BRET probe in HEK293T cells"}, "[2]": {"molecular_target": "T2, TRPV1 ion channel (Homo sapiens, UniProt Q8NER1)", "T2 construct": "expressed in transfected cells; host or cells: HEK293T", "T2 sequence (Q8NER1 whole entry)": "as above", "experiment": "mNeonGreen-Calflux-nLuc-hTRPV1 BRET biosensor in HEK293T cells", "conditions": "for inhibition of CAPS-induced BRET increase: FIG. 8C/8E"}, "[3]": {"molecular_target": "T3, TREK1 (Homo sapiens, UniProt O95069)", "T3 construct": "expressed in transfected cells; host or cells: HEK293T", "T3 sequence (O95069 1-426)": "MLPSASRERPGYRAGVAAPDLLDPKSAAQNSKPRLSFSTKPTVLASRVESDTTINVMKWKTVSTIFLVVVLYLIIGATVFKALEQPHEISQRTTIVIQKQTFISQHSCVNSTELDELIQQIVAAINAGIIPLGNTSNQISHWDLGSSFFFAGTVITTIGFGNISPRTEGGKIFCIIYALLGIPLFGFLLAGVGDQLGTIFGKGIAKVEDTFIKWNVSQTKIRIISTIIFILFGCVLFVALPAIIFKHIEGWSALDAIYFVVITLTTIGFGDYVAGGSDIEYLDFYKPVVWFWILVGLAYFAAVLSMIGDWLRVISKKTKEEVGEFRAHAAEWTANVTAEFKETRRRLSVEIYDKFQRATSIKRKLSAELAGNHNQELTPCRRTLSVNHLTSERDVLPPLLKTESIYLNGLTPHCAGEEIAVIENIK", "experiment": "mNeon-KBP-nLuc-TREK1 BRET probe in HEK293T cells", "conditions": "repeated activation with increasing quantities, FIG. 10A", "source_text": "(§1) B) Kinetic measurement of the effect of KCl injection on the BRET measured from HEK293T cells transiently expressing mNeon-Calflux-nLuc-KiR6.1 BRET probe. C) Kinetic measurement of the effect of Deltamethrine injection on the BRET measured from HEK293T cells transiently expressing mNeon-SOFI-nLuc-NaV1.8 BRET probe.\n(§2) TREK1 BRET probe was activated using the chemical activator BL1249. Kir6.1 BRET probe was activated using KCl. Following depolarization, a strong outward potassium current is known to occur in HEK293T cells. Extracellular potassium ions would therefore be expected to re-enter the cells through ectopically-expressed inward rectifying ion channels such as KiR6.1, thereby increasing the local concentration of potassium in the intracellular vicinity of the KiR ion channel. NaV1.8 was activated in the presence of Deltamethrin, a pyrethroid toxin that is known to prolong the open state of tetrodotoxin-resistant sodium channels. […] While surprising, this observation could nonetheless be explained knowing that TREK1 trigger hyperpolarisation of the cell membrane by allowing potassium to leak outside cells, thus lowering the intracellular potassium concentration which will tend to balance with the extracellular potassium concentration. In that conditions, it has been shown that potassium will inwardly flow through TREK1 opened pore, which is in line with our observations."}, "[4]": {"molecular_target": "T4, NaV1.8 (Homo sapiens, UniProt Q9Y5Y9)", "T4 construct": "expressed in transfected cells; host or cells: HEK293T", "T4 sequence (Q9Y5Y9 whole entry)": "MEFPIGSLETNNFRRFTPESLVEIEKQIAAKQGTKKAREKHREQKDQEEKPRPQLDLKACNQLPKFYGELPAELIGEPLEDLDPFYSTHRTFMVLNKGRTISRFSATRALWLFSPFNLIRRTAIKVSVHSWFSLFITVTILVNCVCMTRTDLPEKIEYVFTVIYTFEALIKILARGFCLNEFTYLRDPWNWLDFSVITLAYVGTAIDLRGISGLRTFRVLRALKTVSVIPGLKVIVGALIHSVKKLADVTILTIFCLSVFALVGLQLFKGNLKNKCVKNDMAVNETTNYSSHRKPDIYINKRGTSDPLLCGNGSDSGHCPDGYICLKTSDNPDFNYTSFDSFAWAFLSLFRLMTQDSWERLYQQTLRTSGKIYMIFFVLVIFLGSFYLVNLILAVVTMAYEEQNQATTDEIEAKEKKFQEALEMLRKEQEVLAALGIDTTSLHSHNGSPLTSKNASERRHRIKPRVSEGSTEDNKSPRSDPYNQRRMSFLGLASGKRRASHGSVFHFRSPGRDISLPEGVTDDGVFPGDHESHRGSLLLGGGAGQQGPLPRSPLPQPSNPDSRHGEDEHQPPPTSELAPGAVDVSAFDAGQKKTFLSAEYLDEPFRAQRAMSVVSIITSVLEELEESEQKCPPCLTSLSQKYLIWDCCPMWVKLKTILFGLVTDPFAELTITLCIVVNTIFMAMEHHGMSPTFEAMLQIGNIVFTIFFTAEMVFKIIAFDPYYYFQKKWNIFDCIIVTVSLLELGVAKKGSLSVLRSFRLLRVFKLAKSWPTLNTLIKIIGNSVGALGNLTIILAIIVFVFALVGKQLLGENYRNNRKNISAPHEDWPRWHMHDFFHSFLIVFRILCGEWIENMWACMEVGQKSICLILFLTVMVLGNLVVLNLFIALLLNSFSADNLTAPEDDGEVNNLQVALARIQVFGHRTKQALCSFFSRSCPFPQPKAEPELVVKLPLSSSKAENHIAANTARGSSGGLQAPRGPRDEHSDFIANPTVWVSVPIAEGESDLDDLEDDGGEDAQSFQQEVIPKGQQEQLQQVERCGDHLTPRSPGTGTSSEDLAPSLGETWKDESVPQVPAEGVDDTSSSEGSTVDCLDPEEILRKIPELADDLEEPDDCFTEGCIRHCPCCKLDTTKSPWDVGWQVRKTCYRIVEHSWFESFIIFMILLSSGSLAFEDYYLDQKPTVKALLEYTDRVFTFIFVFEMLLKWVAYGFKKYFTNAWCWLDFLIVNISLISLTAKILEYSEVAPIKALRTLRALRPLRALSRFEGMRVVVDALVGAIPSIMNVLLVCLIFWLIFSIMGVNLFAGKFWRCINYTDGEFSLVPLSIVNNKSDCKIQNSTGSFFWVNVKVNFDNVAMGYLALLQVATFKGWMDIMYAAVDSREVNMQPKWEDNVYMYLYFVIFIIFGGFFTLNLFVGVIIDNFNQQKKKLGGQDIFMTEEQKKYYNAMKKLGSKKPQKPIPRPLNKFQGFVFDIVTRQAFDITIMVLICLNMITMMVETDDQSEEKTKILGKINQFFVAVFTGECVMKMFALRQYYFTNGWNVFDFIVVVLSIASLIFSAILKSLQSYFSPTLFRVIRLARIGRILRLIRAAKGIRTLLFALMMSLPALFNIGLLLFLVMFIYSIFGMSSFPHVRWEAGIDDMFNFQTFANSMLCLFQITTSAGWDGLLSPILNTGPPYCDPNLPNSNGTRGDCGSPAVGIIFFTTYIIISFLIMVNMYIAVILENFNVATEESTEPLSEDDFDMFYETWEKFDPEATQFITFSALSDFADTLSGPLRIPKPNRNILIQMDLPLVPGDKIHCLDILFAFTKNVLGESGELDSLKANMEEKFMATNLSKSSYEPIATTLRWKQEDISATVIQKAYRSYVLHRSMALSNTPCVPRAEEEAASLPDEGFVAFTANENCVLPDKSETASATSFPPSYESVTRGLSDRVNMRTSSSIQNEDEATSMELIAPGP", "experiment": "mNeon-SOFI-nLuc-NaV1.8 BRET probe in HEK293T cells", "conditions": "FIG. 10C", "source_text": "as §1, §2"}, "[5]": {"molecular_target": "T5, TRPV4 (Homo sapiens, UniProt Q9HBA0)", "T5 construct": "expressed in transfected cells; host or cells: HEK293T", "T5 sequence (Q9HBA0 whole entry)": "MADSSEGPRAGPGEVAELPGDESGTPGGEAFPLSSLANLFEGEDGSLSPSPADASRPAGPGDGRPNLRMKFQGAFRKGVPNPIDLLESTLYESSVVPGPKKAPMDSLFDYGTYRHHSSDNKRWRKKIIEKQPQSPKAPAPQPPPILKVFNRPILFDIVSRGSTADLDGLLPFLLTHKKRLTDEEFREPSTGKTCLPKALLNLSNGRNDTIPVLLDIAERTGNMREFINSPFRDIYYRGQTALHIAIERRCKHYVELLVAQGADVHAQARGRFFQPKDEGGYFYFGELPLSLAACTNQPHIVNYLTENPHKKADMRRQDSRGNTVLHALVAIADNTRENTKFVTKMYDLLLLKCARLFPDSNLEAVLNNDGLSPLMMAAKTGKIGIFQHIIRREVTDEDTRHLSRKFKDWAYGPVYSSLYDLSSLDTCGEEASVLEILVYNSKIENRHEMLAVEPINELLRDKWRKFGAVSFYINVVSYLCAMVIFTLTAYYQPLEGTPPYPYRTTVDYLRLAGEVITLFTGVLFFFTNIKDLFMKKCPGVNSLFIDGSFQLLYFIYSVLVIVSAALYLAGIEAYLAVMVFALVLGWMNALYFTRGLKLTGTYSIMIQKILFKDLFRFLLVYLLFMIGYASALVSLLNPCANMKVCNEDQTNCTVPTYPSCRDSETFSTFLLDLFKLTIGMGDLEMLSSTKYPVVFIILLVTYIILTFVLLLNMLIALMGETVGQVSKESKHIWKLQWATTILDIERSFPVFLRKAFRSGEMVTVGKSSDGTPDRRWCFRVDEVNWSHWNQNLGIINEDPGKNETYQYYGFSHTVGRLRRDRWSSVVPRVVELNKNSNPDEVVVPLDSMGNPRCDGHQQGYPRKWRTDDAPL", "experiment": "mNeonGreen-Calflux-nLuc-hTRPV4 BRET probe in HEK293T cells", "description": "(§3) B) Dose response curve of the TRPM8 agonist WS12 to trigger activation of the mNeon-Calflux-nLuc-hTRPM8 BRET probe transiently expressed in HEK293T cells that were pre-treated or not with 10 μM of the TRPM8 antagonist M8B hydrochloride. C) Dose response curve of the PIEZO1 agonist YODA1 to trigger activation of the mNeon-Calflux-nLuc-PIEZO1 BRET probe transiently expressed in HEK293T cells. Data represent the average of at least three independent experiments.\n(§4) As described above in Examples 7 and 8, the intramolecular BRET biosensor probes hTRPM8-nLuc-Calflux-mGreen and hTRPV4-nLuc-Calflux-mGreen have been prepared wherein the DNA sequence encoding the human protein TRPM8 is fused in C-terminal to a calflux-based calcium BRET sensor, said sensor being sandwiched between the nano luciferase and mNeonGreen. In an effort to exemplify and validate the concept of Calcium sensor-based BRET probes fused to other ion channels, we first assessed whether the activity of two other TRPs ion channels, TRPV4 and TRPM8, could also be measured using such BRET probes. […] The measured half-maximal responses were consistent with those reported in the literature using patch-clamp or calcium-flux measurements on cells transiently expressing TRPV4 or TRPM8."}, "[6]": {"molecular_target": "T6, KiR6.1 (Homo sapiens, UniProt Q15842)", "T6 construct": "expressed in transfected cells; host or cells: HEK293T", "T6 sequence (Q15842 1-424)": "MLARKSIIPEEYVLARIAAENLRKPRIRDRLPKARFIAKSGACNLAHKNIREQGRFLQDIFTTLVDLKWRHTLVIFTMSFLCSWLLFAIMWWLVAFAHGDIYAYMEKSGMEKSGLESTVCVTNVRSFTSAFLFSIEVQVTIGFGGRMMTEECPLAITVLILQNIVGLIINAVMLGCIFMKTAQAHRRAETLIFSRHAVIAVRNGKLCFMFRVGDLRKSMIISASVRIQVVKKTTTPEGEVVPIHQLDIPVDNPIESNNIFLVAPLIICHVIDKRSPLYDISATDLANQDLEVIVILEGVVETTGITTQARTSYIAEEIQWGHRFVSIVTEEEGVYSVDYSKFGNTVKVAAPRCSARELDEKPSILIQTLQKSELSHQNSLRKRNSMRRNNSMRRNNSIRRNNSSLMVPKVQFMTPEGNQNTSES", "experiment": "mNeon-KBP-nLuc-KiR6.1 BRET probe in HEK293T cells", "conditions": "KCl depolarisation, FIG. 10B", "source_text": "[…] C) Kinetic measurement of the effect of Deltamethrine injection on the BRET measured from HEK293T cells transiently expressing mNeon-SOFI-nLuc-NaV1.8 BRET probe.\nas §2"}, "[7]": {"molecular_target": "T7, TRPM8 (Homo sapiens, UniProt Q7Z2W7)", "T7 construct": "expressed in transfected cells; host or cells: HEK293T", "T7 sequence (Q7Z2W7 whole entry)": "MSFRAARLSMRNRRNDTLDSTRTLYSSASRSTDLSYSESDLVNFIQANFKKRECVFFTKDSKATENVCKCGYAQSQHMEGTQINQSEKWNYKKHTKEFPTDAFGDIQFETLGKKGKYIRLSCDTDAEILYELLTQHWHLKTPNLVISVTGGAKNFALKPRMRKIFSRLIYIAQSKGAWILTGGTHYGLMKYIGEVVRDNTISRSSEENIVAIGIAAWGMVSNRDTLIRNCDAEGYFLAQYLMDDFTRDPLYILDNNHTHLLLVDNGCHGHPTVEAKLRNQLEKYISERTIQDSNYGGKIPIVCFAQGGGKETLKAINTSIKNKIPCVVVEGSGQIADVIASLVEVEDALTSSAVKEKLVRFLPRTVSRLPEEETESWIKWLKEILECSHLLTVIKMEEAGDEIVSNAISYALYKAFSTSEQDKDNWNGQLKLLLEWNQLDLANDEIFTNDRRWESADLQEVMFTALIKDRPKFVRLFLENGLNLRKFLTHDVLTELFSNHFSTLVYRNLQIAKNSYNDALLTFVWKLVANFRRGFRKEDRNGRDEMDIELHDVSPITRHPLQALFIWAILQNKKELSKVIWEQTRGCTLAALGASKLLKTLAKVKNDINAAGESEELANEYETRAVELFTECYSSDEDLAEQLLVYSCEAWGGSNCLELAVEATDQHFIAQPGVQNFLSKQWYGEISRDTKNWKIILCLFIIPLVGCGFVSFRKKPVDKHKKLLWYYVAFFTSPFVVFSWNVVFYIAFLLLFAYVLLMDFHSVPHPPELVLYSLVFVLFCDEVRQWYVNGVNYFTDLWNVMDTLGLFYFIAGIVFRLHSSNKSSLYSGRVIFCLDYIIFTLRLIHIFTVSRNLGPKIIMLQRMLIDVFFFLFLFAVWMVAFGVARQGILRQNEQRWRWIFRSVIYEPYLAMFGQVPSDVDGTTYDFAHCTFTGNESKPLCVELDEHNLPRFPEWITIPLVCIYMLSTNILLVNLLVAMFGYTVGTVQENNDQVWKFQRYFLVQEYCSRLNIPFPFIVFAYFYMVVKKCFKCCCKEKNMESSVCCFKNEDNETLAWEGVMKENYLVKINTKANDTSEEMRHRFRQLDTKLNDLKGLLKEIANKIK", "experiment": "mNeonGreen-Calflux-nLuc-hTRPM8 BRET probe in HEK293T cells", "description": "as §3, §4"}, "[8]": {"molecular_target": "T8, NR1-nLuc-Calflux-YFP/NR2B ion channels (NMDA receptors) (Homo sapiens, UniProt Q05586+Q13224)", "T8 construct": "expressed in transfected cells; host or cells: HEK293T", "experiment": "NR1-nLuc-Calflux-YFP BRET probe coexpressed with NR2B in HEK293T cells", "conditions": "read-out: EC50 of activation of NR1-nLuc-Calflux-YFP/NR2B", "source_text": "(§5) FIG. 7: Dose-response for NMDA as measured in HEK293T cells transiently expressing the NR1-nLuc-Calflux-YFP probe alone (A) or coexpressed with NR2A (B) or NR2B (C) subunits.\n(§6) We have constructed a novel BRET probe allowing to measure the activity of NMDA receptors by coupling the cDNA of the NR1 subunit to the BRET sensor nLuc-Calflux-YFP (FIG. 7). NMDA receptors are heterotetramers comprising 2 NR1 subunits and 2 NR2 or NR3 subunits. The subunits NR1, NR2 or NR3 expressed separately cannot form functional receptors."}, "[9]": {"molecular_target": "T9, NR1 subunit (Homo sapiens, UniProt Q05586)", "T9 construct": "expressed in transfected cells; host or cells: HEK293T", "experiment": "NR1-nLuc-Calflux-YFP BRET probe expressed alone in HEK293T cells", "conditions": "increasing dose, FIG. 7A", "source_text": "as §5, §6"}, "[10]": {"molecular_target": "T10, PIEZO1 channel (Homo sapiens, UniProt Q92508)", "T10 construct": "expressed in transfected cells; host or cells: HEK293T", "experiment": "mNeonGreen-Calflux-nLuc-PIEZO1 BRET probe in HEK293T cells", "conditions": "FIG. 9C", "description": "as §3\nThis confirms the functionality of our calcium sensor-based BRET Probe targeting PIEZO1."}, "[11]": {"test_system": "potassium channel SK3 (KCa2.3)", "experiment": "SK3-nLuc-KBP-mNeonGreen BRET probe in HEK293T cells", "conditions": "different concentrations, FIG. 5B", "source_text": "FIG. 5: is a schematic representation of the SK3-nLuc-KBP-mNeonGreen probe (A) and the measure of BRET signal as obtained during the activation of the channel in presence of lonomycine (B).\nThe novel BRET probe has been constructed to measure the activity of potassium channel SK3 (KCa2.3) by coupling the cDNA of the SK3 channel to a potassium sensor (protein KBP, Ashrafet KU al., 2016, Structure 24, 741-749) sandwiched in between luciferase and mNeonGreen (SK3-nLuc-KBP-mNeonGreen, See FIG. 5A).\nThe BRET sensor is based on KBP which has been published (Bischof H et al, 2017, Nat Commun. 8(1):1422), but this sensor was never coupled to a channel in order to specifically measure the activity of the channel as presented in this invention."}, "[12]": {"conditions": "HEK293T cells pre-treated with 10 μM antagonist"}}, "note": "pEC50: −log10 of the molar value."}
{"smiles": "CC(=O)Nc1nc2c(Oc3cc(-c4ccc(C(F)(F)F)cc4)ncn3)cccc2s1", "note": "[AMG517]", "values": [{"measurement": "effect on dose-response to CAPS (antagonism)", "setting": "[1]; FIG. 4A", "result": "shifted the dose-response to CAPS to the right"}, {"measurement": "inhibition of CAPS-induced BRET increase", "setting": "[2]", "result": "inhibited the CAPS-induced BRET increase"}]}
{"smiles": "c1ccc(-c2nn[nH]n2)c(Nc2cccc3c2CCCC3)c1", "note": "[BL1249]", "values": [{"measurement": "change of basal BRET", "setting": "[3]", "result": "dose-dependently increased the basal BRET"}]}
{"smiles": "COc1cc(CNC(=O)CCCC/C=C/C(C)C)ccc1O", "note": "[CAPS, Capsaïcin]", "values": [{"measurement": "change of basal BRET after exposure", "setting": "[2]; kinetic measurement, FIG. 8A", "result": "dramatically increased with first-order kinetics"}]}
{"smiles": "CC1(C)[C@H](C(=O)O[C@H](C#N)c2cccc(Oc3ccccc3)c2)[C@@H]1C=C(Br)Br", "note": "[Deltamethrin]", "values": [{"measurement": "change of BRET signal", "setting": "[4]", "result": "decrease of the BRET signal"}]}
{"smiles": "CC(C)C[C@H](NC(=O)c1cc2ccccc2s1)C(=O)N1CCN(C(=O)[C@H](CO)NS(=O)(=O)c2ccc(Cl)cc2Cl)CC1", "note": "[GSK1016790A]", "values": [{"measurement": "change of BRET signal by agonist", "setting": "[5]; HEK293T cells, FIG. 9A", "result": "dose-dependently increased"}]}
{"smiles": "Cc1c(C(=O)Nc2cccc(C(F)(F)F)c2)cc(-c2ccccc2)n1CCCN1CCOCC1", "note": "[HC060747]", "values": [{"measurement": "effect on agonist (GSK1016790A) potency", "setting": "[5]; [12]", "result": "right-shifted the corresponding agonist potency to higher values"}]}
{"smiles": "[Cl-].[K+]", "note": "[KCl]", "values": [{"measurement": "change of BRET signal", "setting": "[6]", "result": "increase of the BRET signal"}]}
{"smiles": "COc1cc(CN(CCN)C(=O)c2cccs2)ccc1OCc1ccccc1.Cl", "note": "[MBB]", "values": [{"measurement": "effect on agonist (WS12) potency", "setting": "[7]; [12]", "result": "right-shifted the corresponding agonist potency to higher values"}]}
{"smiles": "CN[C@H](CC(=O)O)C(=O)O", "note": "[NMDA, N-methyl-D-aspartate]", "values": [{"measurement": "pEC50", "setting": "[8]", "result": 4.91}, {"measurement": "modulation of BRET signal, NR1 probe alone", "setting": "[9]", "result": "not modulated"}]}
{"smiles": "CC(C)NCCN(C(C)C)S(=O)(=O)c1ccc(Cl)cc1Cl", "note": "[RN1734]", "values": [{"measurement": "inhibition of CAPS-induced BRET increase", "setting": "[2]", "result": "failed to inhibit"}]}
{"smiles": "COc1ccc(NC(=O)[C@@H]2C[C@H](C)CC[C@H]2C(C)C)cc1", "note": "[WS12]", "values": [{"measurement": "change of BRET signal by agonist", "setting": "[7]; HEK293T cells, FIG. 9B", "result": "dose-dependently increased"}]}
{"smiles": "Clc1cccc(Cl)c1CSc1nnc(-c2cnccn2)s1", "note": "[YODA1]", "values": [{"measurement": "change of BRET signal by agonist", "setting": "[10]", "result": "dose-dependently increased"}]}
{"smiles": "C[C@H](CCC(=O)O)C[C@H](C)C[C@H](C)C(=O)/C=C(\\O)[C@H](C)C[C@H](C)C/C=C/[C@@H](C)[C@@H](O)[C@@H](C)[C@@H](O)C[C@@H]1CC[C@@](C)([C@H]2CC[C@@](C)([C@@H](C)O)O2)O1", "note": "[ionomycin]", "values": [{"measurement": "change of BRET signal on stimulation", "setting": "[1]; TRPV1-nLuc-Calflux-YFP/mNeonGreen probe", "result": "marginal increase"}, {"measurement": "change of BRET signal (potassium efflux)", "setting": "[11]", "result": "decrease of the BRET signal"}]}
